Measurements taken from patent publication US8389555B2, “Medicaments” (Motac Neuroscience Limited, priority 2007, dated 2013).
Where a name gives a salt, the structure may show the parent alone.

Tests used:
[1] = target: T1, human dopamine D3 receptors (Homo sapiens, UniProt P35462); experiment: Dopamine D3 receptor binding assay ([3H]spiperone, CHO cell membranes); conditions: for Ki: human D3 receptors in CHO cells, 0.2 nM [3H]spiperone, mean ± SEM, read-out: Affinity Ki (D3); for Selectivity Ki(D2)/Ki(D3): ratio of Ki(D2) to Ki(D3)
T1 construct: expressed in transfected cells
T1 sequence (P35462 whole entry): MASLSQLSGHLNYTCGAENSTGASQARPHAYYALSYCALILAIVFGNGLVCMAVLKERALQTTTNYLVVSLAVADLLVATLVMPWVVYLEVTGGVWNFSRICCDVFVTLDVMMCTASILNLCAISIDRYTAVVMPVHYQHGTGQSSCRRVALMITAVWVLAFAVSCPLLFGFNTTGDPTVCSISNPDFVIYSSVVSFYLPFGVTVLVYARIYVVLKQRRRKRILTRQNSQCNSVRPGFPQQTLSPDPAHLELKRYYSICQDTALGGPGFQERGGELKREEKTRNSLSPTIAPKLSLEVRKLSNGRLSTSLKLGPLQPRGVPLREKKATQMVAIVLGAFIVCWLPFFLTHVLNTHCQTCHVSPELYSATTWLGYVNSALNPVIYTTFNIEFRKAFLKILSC
Experimental: (§1) Compounds synthesized in Examples A, B, C and D were assayed to test their affinity for dopamine D3 and D2 receptors.
(§2) METHODS: Dopamine D2S and D3 Receptor Binding Assays
Human D3 receptors stably expressed in CHO cells were used as described by Sokoloff et al. (Sokoloff, P. et al., Eur. J. Pharmacol. 1992, 225, 331-337). The cell line was cultured in Dulbecco's modified Eagle's medium supplemented with 2 mM glutamine, and 10% dialyzed fetal bovine serum, and were grown in an atmosphere of 5% CO2 at 37° C. (Gibco™).
(§3) Human D2S- and D3 receptors expressing cell lines were grown to confluence. The medium was removed, and the cells were washed with 10 ml PBS buffer (140 mM NaCl, 3 mM KCl, 1.5 mM KH2PO4, 8 mM Na2HPO4, pH 7.4) at 4° C. After removing the wash buffer, the cells were scraped from the flasks into 15 ml of ice-cold media, and centrifuged at 3,000 rpm for 10 minutes at 4° C. After centrifugation the medium was removed and the […] resuspended in ice-cold Tris-HCl buffer containing 5 mM MgCl2, pH 7.4 and disrupted with a Polytron and centrifuged at 20,000 rpm, for 30 minutes at 4° C. The pellet was resuspended by sonication in ice-cold Tris-HCl buffer (containing 5 mM MgCl2, pH 7.4), membrane aliquots were stored at −70° C. Determination of membrane protein was carried out by the method of Bradford (Bradford, M. M. Anal Biochem 1976, 72, 248-54).
(§4) Cell membranes containing human D2S and D3 receptors from CHO cells were thawed, rehomogenized with sonication at 4° C. in Tris-HCl, pH 7.4 containing 120 mM NaCl, 5 mM KCl, 2 mM CaCl2 and 1 mM MgCl2 (incubation buffer), and incubated with 0.2 nM [^3H]spiperone (106 Ci·mmol^−1, Amersham Biosciences, Freiburg, Germany), and drug diluted in incubation buffer. Non-specific binding was determined in the presence of 10 μM BP 897 ((Wermuth, C. G. et al. in Chem. Abstr. (Eur. Pat. 0779284, 1997)). Incubations were run at 25° C. for 120 min, and terminated by rapid filtration through PerkinElmer GF/B glass fibre filters (PerkinElmer Life Sciences, Rodgau, Germany) coated in 0.3% polyethylenimine (Sigma-Aldrich, Taufkirchen, Germany) using an Inotech cell harvester (Inotech AG, Dottikon, Switzerland). Unbound radioligand was removed with four washes of 1 ml of ice-cold 50 mM Tris-HCl buffer, pH 7.4, containing 120 mM NaCl. The filters were soaked in 9 ml Beta plate scint scintillator and counted using a PerkinElmer MicroBeta®Trilux scintillation counter (PerkinElmer Life Sciences). Competition binding data were analyzed by the software GraphPad Prism™ (2000, version 3.02, San Diego, Calif., USA), using non-linear least squares fit. For detailed screening the compounds have been tested at seven concentrations in triplicate carrying out three to five separate binding experiments for human dopamine D2S and for human dopamine D3 receptors and expressed as mean±standard error of the mean (SEM). Ki values were calculated from the IC50 values according to Cheng-Prusoff equation (Cheng, Y. C., Prusoff, W. H. Biochem. Pharmacol. 1973, 22, 3099-3108.).

[2] = target: T2, recombinant human D2(short) dopamine receptor (Homo sapiens, UniProt P14416); experiment: Dopamine D2S receptor binding assay ([3H]spiperone, CHO cell membranes); conditions: human D2S receptors in CHO cells, 0.2 nM [3H]spiperone, mean ± SEM; read-out: Affinity Ki (D2)
T2 construct: expressed in transfected cells; host or cells: CHO-D2S cells (per Hayes et al. 1992)
T2 sequence (P14416 1-414 isoform P14416-2): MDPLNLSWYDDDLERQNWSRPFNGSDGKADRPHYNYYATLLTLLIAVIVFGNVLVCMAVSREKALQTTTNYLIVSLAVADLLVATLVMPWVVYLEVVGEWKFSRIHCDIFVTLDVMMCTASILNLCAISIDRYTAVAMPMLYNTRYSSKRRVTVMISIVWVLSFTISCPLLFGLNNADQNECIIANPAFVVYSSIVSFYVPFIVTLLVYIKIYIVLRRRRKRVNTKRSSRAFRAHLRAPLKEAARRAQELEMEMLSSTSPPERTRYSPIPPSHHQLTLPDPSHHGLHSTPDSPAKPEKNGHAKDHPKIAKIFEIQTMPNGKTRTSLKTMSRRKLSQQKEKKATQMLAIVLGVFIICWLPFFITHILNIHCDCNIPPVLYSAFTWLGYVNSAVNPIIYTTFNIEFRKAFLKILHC
Experimental: as §1, §2
CHO-D2S cells, expressing the recombinant human D2(short) dopamine receptor gene, (Hayes, G. et al., J. Mol. Endocrinol. 1992, 6, 920-926) were grown in Dulbecco's modified Eagle's medium/nutrient mixture F12 1:1 mixture supplemented with 2 mM glutamine, 10% fetal bovine serum, and 10 μl·ml^−1 penicillin/streptomycin in an atmosphere of 5% CO2 at 37° C. (Gibco™, Karlsruhe, Germany).
as §3, §4

For `CCCN(CCCCNC(=O)c1ccccc1)C1CCc2ncsc2C1` (centres unmarked) (as salt: salt) [Compound 1, N-{4-[Propyl-(4,5,6,7-tetrahydro-benzothiazol-6-yl)-amino]-butyl}-benzamide], the melting point was 152 °C.

With `CN(CCCCNC(=O)c1ccc2ccccc2c1)C1CCc2ncsc2C1` (centres unmarked) (as salt: salt) [Compound 3, Naphthalene-2-carboxylic acid {4-[methyl-(4,5,6,7-tetrahydro-benzothiazol-6-yl)-amino]-butyl}-amide] the melting point was 122 °C.

`CCN(CCCCNC(=O)c1ccc2ccccc2c1)C1CCc2ncsc2C1` (centres unmarked) (as salt: salt) [Compound 4, Naphthalene-2-carboxylic acid {4-[ethyl-(4,5,6,7-tetrahydro-benzothiazol-6-yl)-amino]-butyl}-amide] gave a melting point of 120 °C.

For `C=CCN(CCCCNC(=O)c1ccc2ccccc2c1)C1CCc2ncsc2C1` (centres unmarked) (as salt: salt) [Compound 6, Naphthalene-2-carboxylic acid {4-[allyl-(4,5,6,7-tetrahydro-benzothiazol-6-yl)-amino]-butyl}-amide], the melting point was 128 °C.

For `C#CCN(CCCCNC(=O)c1ccc2ccccc2c1)C1CCc2ncsc2C1` (centres unmarked) (as salt: salt) [Compound 7, Naphthalene-2-carboxylic acid {4-[prop-2-ynyl-(4,5,6,7-tetrahydro-benzothiazol-6-yl)-amino]-butyl}-amide], the melting point was 126 °C.

With `CC#CCN(CCCCNC(=O)c1ccc2ccccc2c1)C1CCc2ncsc2C1` (centres unmarked) (as salt: salt) [Compound 8, Naphthalene-2-carboxylic acid {4-[but-2-ynyl-(4,5,6,7-tetrahydro-benzothiazol-6-yl)-amino]-butyl}-amide] the melting point was 147 °C.

`CCCN(CCCCC(=O)Nc1ccc2ccccc2c1)C1CCc2ncsc2C1` (centres unmarked) (as salt: salt) [Compound 9, 5-[Propyl-(4,5,6,7-tetrahydro-benzothiazol-6-yl)-amino]-pentanoic acid naphthalen-2-ylamide] showed a melting point of 85 °C.

In the case of `CN(CCCCNC(=O)c1cc2ccccc2s1)C1CCc2ncsc2C1` (centres unmarked) (as salt: salt) [Compound 11, Benzo[b]thiophene-2-carboxylic acid {4-[methyl-(4,5,6,7-tetrahydro-benzothiazol-6-yl)-amino]-butyl}-amide], the melting point is reported as 105 °C.

`CCN(CCCCNC(=O)c1cc2ccccc2s1)C1CCc2ncsc2C1` (centres unmarked) (as salt: salt) [Compound 12, Benzo[b]thiophene-2-carboxylic acid {4-[ethyl-(4,5,6,7-tetrahydro-benzothiazol-6-yl)-amino]-butyl}-amide] gave a melting point of 103 °C.

Work on `CCN(CCCCNC(=O)c1ccc2ncsc2c1)C1CCc2ncsc2C1` (centres unmarked) (as salt: salt) [Compound 14, Benzothiazole-6-carboxylic acid {4-[ethyl-(4,5,6,7-tetrahydro-benzothiazol-6-yl)-amino]-butyl}-amide] yielded a melting point of 106.5 °C.

`CCCN(CCCCNC(=O)C1CCCCC1)C1CCc2ncsc2C1` (centres unmarked) (as salt: salt) [Compound 20, Cyclohexanecarboxylic acid {4-[propyl-(4,5,6,7-tetrahydro-benzothiazol-6-yl)-amino]-butyl}-amide] gave a melting point of 130 °C.

`CCCN(CCCCNC(=O)N1CCCCC1)C1CCc2ncsc2C1` (centres unmarked) (as salt: salt) [Compound 21, Piperidine-1-carboxylic acid {4-[propyl-(4,5,6,7-tetrahydro-benzothiazol-6-yl)-amino]-butyl}-amide] gave a melting point of 71 °C.

Molecule `CCCN(CCCCNC(=O)NC1CCCCC1)C1CCc2ncsc2C1` (centres unmarked) (as salt: salt) [Compound 22, 1-Cyclohexyl-3-{4-[propyl-(4,5,6,7-tetrahydro-benzothiazol-6-yl)-amino]-butyl}-urea] has a melting point of 149 °C.

For `CCCN(CCCCNC(=O)C1CCc2ccccc2C1)C1CCc2ncsc2C1` (centres unmarked) (as salt: salt) [Compound 23, 1,2,3,4-Tetrahydro-naphthalene-2-carboxylic acid {4-[propyl-(4,5,6,7-tetrahydro-benzothiazol-6-yl)-amino]-butyl}-amide], the melting point was 138 °C.

`CCCN(CCCCNC(=O)N1CCc2ccccc2C1)C1CCc2ncsc2C1` (centres unmarked) (as salt: salt) [Compound 24, 3,4-Dihydro-1H-isoquinoline-2-carboxylic acid {4-[propyl-(4,5,6,7-tetrahydro-benzothiazol-6-yl)-amino]-butyl}-amide] gave a melting point of 125 °C.

`CCCN(CCCCNC(=O)N1CCc2cc(OC)c(OC)cc2C1)C1CCc2ncsc2C1` (centres unmarked) (as salt: salt) [Compound 25, 6,7-Dimethoxy-3,4-dihydro-1H-isoquinoline-2-carboxylic acid {4-[propyl-(4,5,6,7-tetrahydro-benzothiazol-6-yl)-amino]-butyl}-amide] showed a melting point of 106 °C.

For `CCCN(CCCCNC(=O)C1Cc2ccccc2C1)C1CCc2ncsc2C1` (centres unmarked) (as salt: salt) [Compound 26, Indane-2-carboxylic acid-{4-[propyl-(4,5,6,7-tetrahydrobenzothiazol-6-yl)amino]butyl}amide], the melting point was 119 °C.

Work on `CCCN(CCCCNC(=O)N1Cc2ccccc2C1)C1CCc2ncsc2C1` (centres unmarked) (as salt: salt) [Compound 27, 1,3-Dihydro-isoindole-2-carboxylic acid {4-[propyl-(4,5,6,7-tetrahydro-benzothiazol-6-yl)-amino]-butyl}-amide] yielded a melting point of 118 °C.

`CCN(CCN1CCN(c2ccccc2OC)CC1)C1CCc2ncsc2C1` (centres unmarked) (as salt: salt) [Compound 28] gave a melting point of 108 °C.

Work on `CCN(CCCN1CCN(c2ccccc2OC)CC1)C1CCc2ncsc2C1` (centres unmarked) (as salt: salt) [Compound 29, Ethyl-{3-[4-(2-methoxy-phenyl)-piperazin-1-yl]-propyl}-(4,5,6,7-tetrahydro-benzothiazol-6-yl)-amine] yielded a melting point of 64 °C.

For `CCN(CCCCN1CCN(c2ccccc2OC)CC1)C1CCc2ncsc2C1` (centres unmarked) (as salt: salt) [Compound 30, Ethyl-{4-[4-(2-methoxy-phenyl)-piperazin-1-yl]-butyl}-(4,5,6,7-tetrahydro-benzothiazol-6-yl)-amine], the melting point was 164 °C.

With `CCN(CCN1CCc2ccccc2C1)C1CCc2ncsc2C1` (centres unmarked) (as salt: salt) [Compound 31, [2-(3,4-Dihydro-1H-isoquinolin-2-yl)-ethyl]-ethyl-(4,5,6,7-tetrahydro-benzothiazol-6-yl)-amine] the melting point was 193 °C.

Work on `CCN(CCNC(=O)c1ccc2ccccc2c1)C1CCc2ncsc2C1` (centres unmarked) (as salt: salt) [Compound 32, Naphthalene-2-carboxylic acid {2-[ethyl-(4,5,6,7-tetrahydro-benzothiazol-6-yl)-amino]-ethyl}-amide] yielded a melting point of 110 °C.

For `CCCN(CCCCNC(=O)C12CC3CC(CC(C3)C1)C2)C1CCc2ncsc2C1` (centres unmarked) [Compound 65], the Ki [1] was 0.95 nM, the “Selectivity Ki(D2)/Ki(D3)” value [1] was 2879 and the Ki [2] was 2740 ± 1080 nM.

For `CCCN(CCCCC(=O)N1CCN(c2ccccc2)CC1)C1CCc2ncsc2C1` (centres unmarked) [Compound 66, 1-(4-Phenylpiperazin-1-yl)-5-(propyl-(4,5,6,7-tetrahydrobenzothiazol-6-yl)amino)pentan-1-one], the Ki [1] was 7.23 ± 1 nM, the “Selectivity Ki(D2)/Ki(D3)” value [1] was 572 and the Ki [2] was 4130 ± 1560 nM.

With `CCCN(CCOc1ccccc1)C1CCc2ncsc2C1` (centres unmarked) [Compound 69, N-(2-Phenoxyethyl)-N-propyl-4,5,6,7-tetrahydrobenzothiazol-6-amine] the Ki [1] was 51 ± 10 nM, the “Selectivity Ki(D2)/Ki(D3)” value [1] was 91 and the Ki [2] was 4670 ± 1320 nM.
